Laboratory results published in ChEMBL document CHEMBL5236637, “Expanding the Chemical Space of Drug-like Passerini Compounds: Can α-Acyloxy Carboxamides Be Considered Hard Drugs?” (ACS Med Chem Lett, 2022).

Legend:
[1] = Hydrolytic stability in mouse liver microsomes assessed as esterase-mediated compound hydrolysis by measuring residual substrate activity incubated for 30 mins by LC-HRMS analysis; assay type: ADME, Microsome; settings: for Stability: microsomes, 0.5 h
Pseudomonas aeruginosa = assay: Antibacterial activity against Pseudomonas aeruginosa ATCC 9027 assessed inhibition zone at 1 mg/ml preincubated at room temperature for 1 hr and measured after 24 hrs by agar well-diffusion method; assay type: functional; settings: time 25.0 hrs

COC(=O)c1c(C)cccc1C
Stability [1]: Stable

CC(C)(C)NC(=O)COC(=O)c1ccccc1-c1ccccc1
remaining at 0.5 h ([1]; liver microsomes, read-out: Stability): 81%

COC(=O)c1ccccc1 [METHYL BENZOATE]
Stability [1]: Unstable

GENTAMICIN
inhibition zone (IZ) (Pseudomonas aeruginosa): 22.3 mm
